Measurements as given in US20260217765A1, “NOVEL ANTIMICROBIAL PEPTIDE DESIGNED FROM DUCK-DERIVED ANTIMICROBIAL PEPTIDE ANDUSE THEREOF” (INDUSTRY-ACADEMIC COOPERATION FOUNDATION, CHOSUN UNIVERSITY, priority 2023, published 2026).
Values after ≈ are worked out from the molar mass of the structure shown. Peptide text beside a SMILES is read from it.

Key:
[1] = system: Acinetobacter baumannii_isolate 12 (antibiotic-resistant); type: cell-based, Acinetobacter baumannii; conditions: isolate 12 (antibiotic-resistant)
Text: (§1) To compare the antimicrobial activity of the peptides prepared in <Example 1>, the minimum inhibitory concentration (MIC), […] measured. Here, the minimal inhibitory concentration (MIC) refers to the lowest concentration of a substance that prevents visible bacterial growth.
(§2) Specifically, the bacterial strains listed in Table 2 below were obtained and cultured in media suitable for each strain until the mid-log phase. The cultures were then diluted to a concentration of 2×10^4 cells/100 μL and prepared in microtiter plates (Nunc, USA). Subsequently, serial 2-fold dilutions of the peptides prepared in Example 1 were prepared, and 10 μL of each dilution was added to the wells, and the plates were incubated at 37° C. for 18 hours. Absorbance at 600 nm was measured using a microtiter plate reader (Merck ELISA reader, Germany) to determine the MIC values for each bacterial strain. The parent peptide dCATH was used as a control.

[2] = system: Acinetobacter baumannii_isolate 13 (antibiotic-resistant); type: cell-based, Acinetobacter baumannii; conditions: isolate 13 (antibiotic-resistant)
Text: as §1, §2

[3] = system: Acinetobacter baumannii_isolate 17 (antibiotic-resistant); type: cell-based, Acinetobacter baumannii; conditions: isolate 17 (antibiotic-resistant)
Text: as §1, §2

[4] = system: Acinetobacter baumannii_isolate 18 (antibiotic-resistant); type: cell-based, Acinetobacter baumannii; conditions: isolate 18 (antibiotic-resistant)
Text: as §1, §2

[5] = system: Acinetobacter baumannii_isolate 19 (antibiotic-resistant); type: cell-based, Acinetobacter baumannii; conditions: isolate 19 (antibiotic-resistant)
Text: as §1, §2

[6] = system: Acinetobacter baumannii_isolate 2 (antibiotic-resistant); type: cell-based, Acinetobacter baumannii; conditions: isolate 2 (antibiotic-resistant)
Text: as §1, §2

[7] = system: Acinetobacter baumannii_isolate 22 (antibiotic-resistant); type: cell-based, Acinetobacter baumannii; conditions: isolate 22 (antibiotic-resistant)
Text: as §1, §2

[8] = system: Acinetobacter baumannii_isolate 23 (antibiotic-resistant); type: cell-based, Acinetobacter baumannii; conditions: isolate 23 (antibiotic-resistant)
Text: as §1, §2

[9] = system: Acinetobacter baumannii_isolate 3 (antibiotic-resistant); type: cell-based, Acinetobacter baumannii; conditions: isolate 3 (antibiotic-resistant)
Text: as §1, §2

[10] = system: Acinetobacter baumannii_isolate 4 (antibiotic-resistant); type: cell-based, Acinetobacter baumannii; conditions: isolate 4 (antibiotic-resistant)
Text: as §1, §2

[11] = system: Acinetobacter baumannii_isolate 5 (antibiotic-resistant); type: cell-based, Acinetobacter baumannii; conditions: isolate 5 (antibiotic-resistant)
Text: as §1, §2

[12] = system: Acinetobacter baumannii_isolate 6 (antibiotic-resistant); type: cell-based, Acinetobacter baumannii; conditions: isolate 6 (antibiotic-resistant)
Text: as §1, §2

[13] = system: Acinetobacter baumannii_isolate 8 (antibiotic-resistant); type: cell-based, Acinetobacter baumannii; conditions: isolate 8 (antibiotic-resistant)
Text: as §1, §2

[14] = system: Acinetobacter baumannii_isolate 9 (antibiotic-resistant); type: cell-based, Acinetobacter baumannii; conditions: isolate 9 (antibiotic-resistant)
Text: as §1, §2

[15] = system: Acinetobacter baumannii_isolate11 (antibiotic-resistant); type: cell-based, Acinetobacter baumannii; conditions: isolate11 (antibiotic-resistant)
Text: as §1, §2

[16] = system: Acinetobacter baumannii_isolate15 (antibiotic-resistant); type: cell-based, Acinetobacter baumannii; conditions: isolate15 (antibiotic-resistant)
Text: as §1, §2

[17] = system: Acinetobacter baumannii_isolate20 (antibiotic-resistant); type: cell-based, Acinetobacter baumannii; conditions: isolate20 (antibiotic-resistant)
Text: as §1, §2

[18] = system: Acinetobacter baumannii KCTC 2508; type: cell-based; conditions: KCTC 2508, 24 h
Description: (§3) Specifically, among the bacterial strains listed in Table 2, those known to form biofilms well (Acinetobacter baumannii KCTC 2508, Acinetobacter baumannii isolate 10, and isolate 14) were cultured in the appropriate media to the mid-log phase and diluted to a cell concentration of 5×10^4 cells/100 µL, followed by inoculation into microplates (SPL). Subsequently, the peptides prepared in <Example 1> were serially 10-fold diluted with 10 mM sodium phosphate buffer (pH 7.2), and 10 μL of each dilution was added to each well. The plates were then incubated at 37° C. for 24 hours. After completely removing the supernatant, the plates were fixed with 100% methanol for 15 minutes, stained with crystal violet staining solution for 1 hour, washed three times, and then the stain was solubilized with 95% ethanol. Absorbance was measured at 595 nm using a microplate reader to determine the MBIC values for each bacterial strain.

[19] = system: Acinetobacter baumannii_isolate 10; type: cell-based, Acinetobacter baumannii; conditions: isolate 10, 24 h
Description: as §3

[20] = system: Acinetobacter baumannii_isolate 14; type: cell-based, Acinetobacter baumannii; conditions: isolate 14, 24 h
Description: as §3

[21] = in vitro; type: cell-based; conditions: human, HaCaT keratinocyte cells, Cell Viability
Description: To evaluate the cytotoxicity of the peptides prepared in <Example 1>, toxicity was measured using a human keratinocyte cell line (HaCaT cell line, Dr. N. E. Fusenig, Heidelberg, Germany).
Specifically, HaCaT cells cultured in DMEM medium containing 10% fetal bovine serum (FBS) were seeded at a density of 2×10^5 cells/well into a microtiter plate and incubated for 24 hours. Then, peptides dCATH, dCATH-A1, dCATH-A2, dCATH-A3, dCATH-A4, dCATH-A5, dCATH-A6, and dCATH-A7 were added to each well at concentrations of 3.13, 6.25, 12.5, 25.0, 50.0, and 100.0 μM/well, followed by incubation for 24 hours in a 5% CO2 incubator. After 24 hours, 100 μL of a reaction solution containing 0.5 mg/mL MTT (Thiazolyl Blue Tetrazolium Bromide) dissolved in phosphate-buffered saline (PBS) was added to each well and reacted for 4 hours. After removing the supernatant, 200 μL of DMSO (dimethyl sulfoxide) was added to dissolve the formed MTT crystals, and absorbance at 570 nm was measured to determine cell viability.

Structure (SMILES)	MIC [1] [µM]	MIC [2] [µM]	MIC [3] [µM]	MIC [4] [µM]	MIC [5] [µM]	MIC [6] [µM]	MIC [7] [µM]	MIC [8] [µM]	MIC [9] [µM]	MIC [10] [µM]	MIC [11] [µM]	MIC [12] [µM]	MIC [13] [µM]	MIC [14] [µM]	MIC [15] [µM]	MIC [16] [µM]	MIC [17] [µM]	MBIC [18] [µM]	MBIC [19] [µM]	MBIC [20] [µM]	also measured
CC[C@H](C)[C@H](NC(=O)[C@H](C)NC(=O)[C@H](CCCCN)NC(=O)[C@H](CCCCN)NC(=O)[C@@H](NC(=O)[C@H](CC(C)C)NC(=O)[C@H](CCC(N)=O)NC(=O)[C@H](C)NC(=O)[C@H](C)NC(=O)[C@H](CCCNC(=N)N)NC(=O)[C@@H](N)CCCCN)C(C)C)C(=O)N[C@@H](CCCCN)C(=O)N[C@@H](CCCCN)C(=O)N[C@@H](Cc1ccc(O)cc1)C(=O)N[C@@H](CCCNC(=N)N)C(=O)N[C@@H](C)C(=O)N[C@@H](Cc1c[nH]c2ccccc12)C(=O)N[C@@H](CCCCN)C(=O)N[C@@H](CCCNC(=N)N)C(=O)N[C@@H](CCCNC(=N)N)C(N)=O [dCATH-A6] (H-KRAAQLVKKAIKKYRAWKRR-NH2; N-terminus assumed)	1 (≈ 2.5 µg/mL)	1 (≈ 2.5 µg/mL)	1 (≈ 2.5 µg/mL)	1 (≈ 2.5 µg/mL)	1 (≈ 2.5 µg/mL)	2 (≈ 5 µg/mL)	1 (≈ 2.5 µg/mL)	1 (≈ 2.5 µg/mL)	1 (≈ 2.5 µg/mL)	1 (≈ 2.5 µg/mL)	1 (≈ 2.5 µg/mL)	2 (≈ 5 µg/mL)	1 (≈ 2.5 µg/mL)	1 (≈ 2.5 µg/mL)	1 (≈ 2.5 µg/mL)	1 (≈ 2.5 µg/mL)	1 (≈ 2.5 µg/mL)	2	2	2	viability at 24 h, 3.13 µM [21]: 98.9%; viability at 24 h, 6.25 µM [21]: 100%; viability at 24 h, 12.5 µM [21]: 94.7%; viability at 24 h, 25 µM [21]: 98%; viability at 24 h, 50 µM [21]: 97.8%; viability at 24 h, 100 µM [21]: 92%
CC[C@H](C)[C@H](NC(=O)[C@H](C)NC(=O)[C@H](CC(C)C)NC(=O)[C@@H]1CCCN1C(=O)[C@@H](NC(=O)[C@H](CC(C)C)NC(=O)[C@H](CCC(N)=O)NC(=O)[C@H](C)NC(=O)[C@H](Cc1ccccc1)NC(=O)[C@H](CCCNC(=N)N)NC(=O)[C@@H](N)CCCCN)C(C)C)C(=O)N[C@@H](CCCCN)C(=O)N[C@H](C(=O)N[C@@H](Cc1ccc(O)cc1)C(=O)N[C@@H](CCCNC(=N)N)C(=O)N[C@@H](C)C(=O)N[C@@H](Cc1c[nH]c2ccccc12)C(=O)N[C@@H](CCCCN)C(=O)N[C@@H](CCCNC(=N)N)C(=O)N[C@@H](CCCNC(=N)N)C(N)=O)[C@@H](C)CC [dCATH-A2] (H-KRFAQLVPLAIKIYRAWKRR-NH2; N-terminus assumed)	1 (≈ 2.51 µg/mL)	1 (≈ 2.51 µg/mL)	1 (≈ 2.51 µg/mL)	1 (≈ 2.51 µg/mL)	1 (≈ 2.51 µg/mL)	1 (≈ 2.51 µg/mL)	1 (≈ 2.51 µg/mL)	1 (≈ 2.51 µg/mL)	1 (≈ 2.51 µg/mL)	2 (≈ 5.03 µg/mL)	1 (≈ 2.51 µg/mL)	2 (≈ 5.03 µg/mL)	1 (≈ 2.51 µg/mL)	2 (≈ 5.03 µg/mL)	1 (≈ 2.51 µg/mL)	1 (≈ 2.51 µg/mL)	1 (≈ 2.51 µg/mL)	4	2	2	viability at 24 h, 3.13 µM [21]: 100%; viability at 24 h, 6.25 µM [21]: 100%; viability at 24 h, 12.5 µM [21]: 89%; viability at 24 h, 25 µM [21]: 30.7%; viability at 24 h, 50 µM [21]: 2.99%; viability at 24 h, 100 µM [21]: 2.16%
CC[C@H](C)[C@H](NC(=O)[C@H](C)NC(=O)[C@H](CCCCN)NC(=O)[C@H](CCCCN)NC(=O)[C@@H](NC(=O)[C@H](CC(C)C)NC(=O)[C@H](CCC(N)=O)NC(=O)[C@H](C)NC(=O)[C@H](C)NC(=O)[C@H](CCCNC(=N)N)NC(=O)[C@@H](N)CCCCN)C(C)C)C(=O)N[C@@H](CCCCN)C(=O)N[C@@H](CCCCN)C(=O)N[C@@H](Cc1ccc(O)cc1)C(=O)N[C@@H](CCCNC(=N)N)C(=O)N[C@@H](C)C(=O)N[C@@H](Cc1c[nH]c2ccccc12)C(=O)N[C@@H](CCCCN)C(N)=O [dCATH-A7, KRAAQLVKKAIKKYRAWK] (H-KRAAQLVKKAIKKYRAWK-NH2; N-terminus assumed)	1 (≈ 2.19 µg/mL)	1 (≈ 2.19 µg/mL)	1 (≈ 2.19 µg/mL)	1 (≈ 2.19 µg/mL)	1 (≈ 2.19 µg/mL)	1 (≈ 2.19 µg/mL)	1 (≈ 2.19 µg/mL)	1 (≈ 2.19 µg/mL)	1 (≈ 2.19 µg/mL)	1 (≈ 2.19 µg/mL)	1 (≈ 2.19 µg/mL)	1 (≈ 2.19 µg/mL)	1 (≈ 2.19 µg/mL)	1 (≈ 2.19 µg/mL)	0.5 (≈ 1.09 µg/mL)	1 (≈ 2.19 µg/mL)	1 (≈ 2.19 µg/mL)	2	2	1	viability at 24 h, 3.13 µM [21]: 98%; viability at 24 h, 6.25 µM [21]: 99.2%; viability at 24 h, 12.5 µM [21]: 100%; viability at 24 h, 25 µM [21]: 100%; viability at 24 h, 50 µM [21]: 100%; viability at 24 h, 100 µM [21]: 98.4%
